Read-outs that look alike come from different tables or passages of the source.
Assays:
[1] = in vivo; cited from earlier work
[2] = test system: Hereditary Spastic Paraparesis, homozygous TECPR2 mutations; assay: Treatment of a patient with Hereditary Spastic Paraparesis (Example 2); assay type: in vivo; settings: human patient, daily oral doses, after 30 days of treatment
Method: A human patient is tested and found to be homozygous for TECPR2 mutations and suffering from neurodegenerative issues related to Hereditary Spastic Paraparesis. The patient is given daily oral doses of dexibuprofen to reduce the effects of the disease.

[3] = cited from earlier work; for safety / side effect profile compared to ibuprofen: published studies, incl. pediatric population

Row | SMILES | crossing of the blood brain barrier (BBB) [1] | neurodegenerative issues relating to TECPR2 mutations [2] | safety profile compared to acetaminophen ([3]; in vivo) | safety / side effect profile compared to ibuprofen [3] | safety / side effect profile compared to ibuprofen ([3]; listed as dexibuprofen)
1 | CC(C)Cc1ccc([C@H](C)C(=O)O)cc1 [Dexibuprofen, (S)-a-methyl-4-(2-methylpropyl)benzeneacetic acid] | crosses the blood brain barrier | reduced neurodegenerative issues | superior safety profile to acetaminophen | extremely similar to ibuprofen | did not note safety differences
2 | CC(C)Cc1ccc(C(C)C(=O)O)cc1 (stereo not drawn) [ibuprofen] | crosses the blood brain barrier | – | – | – | –
